Consider 13 compounds from US20250345443A1, “PHARMACEUTICAL COMPOUND AND USE THEREOF” (DUALITY BIOLOGICS (SUZHOU) CO., LTD., priority 2022, published 2025).

Molecules are shown by their SMILES. Bounds are passed on as bounds.

Broadly, the EC50 is the midpoint of the concentration-response curve. Read a high EC50 as a less potent agent.

What all share (assay type): cell-based
Test [1] deals with T1, hTLR8 (Homo sapiens, UniProt Q9NR97).
T1 construct: tissue Biocytogen; host or cells: spleen cells from hTLR8-C57BL/6 (hTLR8 humanized, knock-in) mice
T1 sequence (Q9NR97 27-1041): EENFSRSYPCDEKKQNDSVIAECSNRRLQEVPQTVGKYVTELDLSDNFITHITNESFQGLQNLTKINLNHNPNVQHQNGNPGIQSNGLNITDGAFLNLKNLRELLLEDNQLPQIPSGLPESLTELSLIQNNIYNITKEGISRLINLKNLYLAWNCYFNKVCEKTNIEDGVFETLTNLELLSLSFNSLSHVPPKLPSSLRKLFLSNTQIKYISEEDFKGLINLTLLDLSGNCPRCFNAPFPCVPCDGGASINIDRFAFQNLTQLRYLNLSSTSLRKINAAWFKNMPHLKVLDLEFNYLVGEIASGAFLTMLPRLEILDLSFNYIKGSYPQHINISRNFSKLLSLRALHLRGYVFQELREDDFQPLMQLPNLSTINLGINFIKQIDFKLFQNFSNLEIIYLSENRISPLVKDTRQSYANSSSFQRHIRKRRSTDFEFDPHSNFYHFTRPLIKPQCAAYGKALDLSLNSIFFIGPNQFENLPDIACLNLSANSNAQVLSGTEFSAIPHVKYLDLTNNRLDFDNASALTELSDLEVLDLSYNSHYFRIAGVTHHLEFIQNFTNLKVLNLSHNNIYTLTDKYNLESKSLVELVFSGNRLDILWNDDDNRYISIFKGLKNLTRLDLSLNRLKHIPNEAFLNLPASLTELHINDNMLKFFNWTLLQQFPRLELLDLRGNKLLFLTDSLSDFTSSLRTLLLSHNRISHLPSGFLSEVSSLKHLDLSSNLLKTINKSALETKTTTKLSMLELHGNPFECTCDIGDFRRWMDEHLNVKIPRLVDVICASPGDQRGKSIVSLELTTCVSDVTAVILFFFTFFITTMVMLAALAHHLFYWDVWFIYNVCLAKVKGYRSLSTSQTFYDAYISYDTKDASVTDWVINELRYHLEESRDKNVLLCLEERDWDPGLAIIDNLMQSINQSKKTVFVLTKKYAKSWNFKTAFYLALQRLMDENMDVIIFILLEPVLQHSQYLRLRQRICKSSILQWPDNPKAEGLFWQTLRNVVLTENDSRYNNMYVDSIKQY
Kind of test: Stimulation of spleen cells from hTLR8-C57BL/6 mice with TLR8 agonists (ELISA).

The subject of test [2] is human PBMCs. Nature of the test: Induction activity of compounds on TNF-α in human PBMCs (ELISA). The settings on record: 24 h. As to the method:
(§1) PBMC cells were treated with the compounds. The compounds of the present application were diluted with DMSO, for example, to about 15 mM. The reference compounds were diluted to 5 mg/mL and then sequentially added to cell plates. The compounds were serially 3-fold diluted to give a total of 8 concentrations and added to cell plates, with two replicate wells set for each concentration. DMSO was added to the negative control wells at 0.4 μL/well, and the reference compounds at 5 mg/mL were added to the positive control wells at 0.4 μL/well. The final concentration of DMSO was 0.2%. Frozen human PBMCs in cryopreservation tubes were quickly thawed in a 37° C. water bath and transferred into 50-mL centrifuge tubes. Pre-warmed RPMI1640 medium was gradually added, and the mixture was well mixed and centrifuged for 15 min before the supernatant was discarded. The cells were resuspended in a culture medium and then counted. The cell suspension was adjusted to 2.5×10^6 cells/mL with the culture medium. Diluted cells were added at 200 μL/500,000 cells/well in the 96-well plates containing the compounds.
The plate was then washed 3 times.
(§2) Compound activity data analysis: The OD450 values were converted to TNF-α and IFN-α contents by GraphPad Prism software analysis and fitted to give dose-response curves of the compounds. The EC50 values of the compounds were calculated.

The test system of test [3] is human PBMCs. Kind of test: Induction activity of compounds on IFN-α in human PBMCs (ELISA). To be noted: 24 h. The procedure:
as §1, §2
For orientation: An ELISA detects its analyte on a solid surface through an enzyme-linked reagent.

Test [4] concerns the target T2, hTLR7 (human Toll-like receptor 7) (Homo sapiens, UniProt Q9NYK1).
T2 construct: host or cells: HEK-Blue hTLR7 cells
T2 sequence (Q9NYK1 27-1049): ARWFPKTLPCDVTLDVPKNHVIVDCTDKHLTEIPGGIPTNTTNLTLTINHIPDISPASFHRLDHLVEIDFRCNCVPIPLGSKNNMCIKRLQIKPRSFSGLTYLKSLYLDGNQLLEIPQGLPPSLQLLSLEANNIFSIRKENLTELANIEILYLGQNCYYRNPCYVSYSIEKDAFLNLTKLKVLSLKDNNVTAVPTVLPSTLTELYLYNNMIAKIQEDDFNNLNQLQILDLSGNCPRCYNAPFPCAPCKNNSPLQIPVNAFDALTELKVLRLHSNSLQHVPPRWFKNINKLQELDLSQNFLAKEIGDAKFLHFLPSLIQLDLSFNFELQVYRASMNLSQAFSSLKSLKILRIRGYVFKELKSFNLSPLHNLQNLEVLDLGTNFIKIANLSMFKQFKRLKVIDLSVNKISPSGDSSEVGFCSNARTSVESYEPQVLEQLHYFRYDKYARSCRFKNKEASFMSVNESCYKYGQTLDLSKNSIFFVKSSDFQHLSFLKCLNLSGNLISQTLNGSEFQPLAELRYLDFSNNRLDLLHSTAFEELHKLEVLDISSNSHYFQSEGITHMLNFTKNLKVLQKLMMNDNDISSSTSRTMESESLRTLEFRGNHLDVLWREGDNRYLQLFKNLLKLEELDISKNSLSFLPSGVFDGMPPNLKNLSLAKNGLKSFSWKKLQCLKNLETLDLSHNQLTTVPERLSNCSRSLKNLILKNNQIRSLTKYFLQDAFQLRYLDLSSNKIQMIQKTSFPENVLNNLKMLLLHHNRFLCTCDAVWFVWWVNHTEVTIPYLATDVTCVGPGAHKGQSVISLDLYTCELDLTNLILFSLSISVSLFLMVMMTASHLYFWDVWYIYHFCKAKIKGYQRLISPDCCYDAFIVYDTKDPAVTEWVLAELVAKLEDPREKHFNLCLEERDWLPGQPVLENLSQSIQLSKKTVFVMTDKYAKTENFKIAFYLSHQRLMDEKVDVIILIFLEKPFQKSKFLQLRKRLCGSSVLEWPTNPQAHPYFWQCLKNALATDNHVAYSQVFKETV
Nature of the test: Agonistic activity of compounds on hTLR7 (HEK-Blue hTLR7 cells, QUANTI-Blue OD650). To be noted: 24 h. The procedure: (§3) In this example, the agonistic activity of the compounds of the present application on hTLR7 (human Toll-like receptor 7) and hTLR8 (human Toll-like receptor 8) was assessed; the induction activity of the compounds on human PBMCs for TNF-α and IFN-α production was assessed in human PBMCs (human peripheral blood mononuclear cells).
(§4) All compounds were formulated in DMSO into 30 mM concentrated stock solutions and preserved at 4° C. […] HEK-Blue hTLR7 and HEK-Blue hTLR8 cell lines were purchased from InvivoGen, and human PBMCs were purchased from Shanghai Saily Biotechnology Co., Ltd. (Cat. No. XFB—HP100B).
(§5) Compound dilution: The compounds of the present application were diluted with DMSO, for example, to about 15 mM. The reference compounds were diluted and then sequentially added to cell plates. […] DMSO was added to the negative control wells at 0.2 μL/well, and the reference compounds were added to the positive control wells. The final concentration of DMSO was 0.2%.
(§6) Cell plating: When an 80% confluence of HEK Blue hTLR7&8 cells in the culture flask was observed under a microscope, the culture medium was discarded, 10 mL of detection medium was added, and the cells were pipetted to form a single-cell suspension. The cells were counted using a cell counter and diluted to 500,000 cells/mL. The cells were plated at 100 μL/50,000 cells/well in the 96-well plates containing the compounds. The compounds and cells were co-incubated in an incubator at 37° C. with 5% CO2 for 24 h.
(§7) Compound activity detection: 20 μL of cell supernatant was taken from each well and added to an experimental plate containing QUANTI-Blue™ reagent at 180 μL/well. The plate was incubated at 37° C. for 1 h, and then the absorbance at 650 nm (OD650) was measured on the multimode microplate reader Flexstation III.
(§8) The EC50 values of the compounds were calculated.

The target of test [5] is T3, hTLR8 (human Toll-like receptor 8) (Homo sapiens, UniProt Q9NR97).
T3 construct: host or cells: HEK-Blue hTLR8 cells
T3 sequence (Q9NR97 27-1041): T1 sequence (Q9NR97 27-1041)
Nature of the test: Agonistic activity of compounds on hTLR8 (HEK-Blue hTLR8 cells, QUANTI-Blue OD650). The settings on record: 24 h. The procedure: as §3, §4, §5, §6, §7, §8

Consider `CCCC[C@](C)(CO)Nc1nc(N)nc2cc(F)cnc12` [GS-9688], for which the “secretion of TNFα and IFNγ by spleen cells” value in test [1] was “increase in the secretion of TNFα and IFNγ”.
Consider `CCOCc1nc2c(N)nc3ccccc3c2n1CC(C)(C)O` [R848, reference compound], for which the EC50 in test [2] amounted to 2330 nM; in test [3] it was 202 nM.
On to `CCCN(CCC)C(=O)C1=Cc2ccc(-c3ccc(C(=O)N4CCCC4)cc3)cc2N=C(N)C1` [VTX-2337, reference compound], for which the EC50 in test [4] was above 30000 nM; in test [5] it was 21.1 nM; in test [2] (PBMC), 1010 nM; in test [3] (PBMC), above 7500 nM.
`CCCN(Cc1ccc(N)cc1)C(=O)C1=Cc2ccc(-c3cncc(CO)c3)cc2N=C(N)C1` [compound 10]: the EC50 in test [4] was found to be 6260 nM; in test [5] it was 33.2 nM; in test [2] (PBMC), 375 nM; in test [3] (PBMC), 45 nM.
Regarding `CCCN(Cc1ccc(N)cc1)C(=O)C1=Cc2ccc(-c3ccc(C(=O)N4CC[C@@H](O)C4)cc3)cc2N=C(N)C1` [compound 11], the EC50 amounted to 303 nM in test [2] (PBMC) and 453 nM in test [3] (PBMC).
Turning to `CCCN(Cc1ccc(N)cc1)C(=O)C1=Cc2ccc(-c3ccc4c(c3)C(=O)OC4)cc2N=C(N)C1` [compound 12], the EC50 in test [4] worked out at 1670 nM; in test [5], 432 nM; in test [2] (PBMC), 351 nM; in test [3] (PBMC), 191 nM.
Regarding `CCCN(Cc1cccc(N)c1)C(=O)C1=Cc2ccc(-c3cncc(CO)c3)cc2N=C(N)C1` [compound 13], the EC50 worked out at 14400 nM in test [4] and 60.8 nM in test [5].
Turning to `CCCCc1nc2c(N)nc3cccc(CCCCCN)c3c2s1` [compound 14], the EC50 in test [4] turned out to be 191 nM; in test [5] it was 11.6 nM; in test [2] (PBMC), 147 nM; in test [3] (PBMC), 74 nM.
With `CCCCc1nc2c(N)nc3cccc(CCCCN)c3c2s1` [compound 16], the EC50 worked out at 434 nM in test [4], 55.2 nM in test [5], 117 nM in test [2] (PBMC) and 451 nM in test [3] (PBMC).
Turning to `CCCCc1nc2c(N)nc3cccc(CCCCCCN)c3c2s1` [compound 17], the EC50 came out at 192 nM in test [4], 173 nM in test [5], 132 nM in test [2] (PBMC) and 50 nM in test [3] (PBMC).
Regarding `CCOCc1nc2c(N)nc3cccc(CCCCCN)c3c2s1` [compound 18], the half-maximal effective concentration (EC50) in test [4] stood at 1060 nM; in test [5], 260 nM.
The like results for `CCCCc1nc2c(N)nc3cccc(CCCCCN)c3c2o1` [compound 19] were, in that order, 149 nM and 11.3 nM.
For `CCCCc1nc2c(N)nc3cccc(CCCCN)c3c2o1` [compound 20], the EC50 in test [4] turned out to be 73.3 nM; in test [5], 6.52 nM.
